Where “and” joins values, the source holds several entries; their conditions need not be identical. Identical values can stand only once.
Columns and labels:
women with endometriosis = experiment: Example 8A: safety (adverse events, BMD, menstruation recovery); conditions: for Change from Baseline in BMD, mean: Week 24
From the text: Study participants were premenopausal (≥20 years) Japanese women with endometriosis (EM)-associated pain who completed a preceding 12-week study and were eligible to continue for an additional 12-week treatment were enrolled. The participants has confirmed normal regular menstrual cycles (25 to 38 days per cycle) and diagnosed to have EM and EM-related dysmenorrhea and pelvic pain of at least moderate severity as determined by the physician B&B scale. The primary endpoint was the safety including assessment of change in bone mineral density (BMD) using dual energy x-ray absorptiometry, adverse events, vital signs, weight, 12-lead electrocardiograms, and clinical laboratory tests.
The present extension study consisted of an additional treatment period of 12 weeks and a follow-up period of 4 weeks. Overall treatment duration was 24 weeks from the beginning of the preceding phase 2 study. Patients were assigned to the same treatment group as the preceding phase 2 study.

FIG. 7E = experiment: FIG. 7E
From the text: Table printed on a drawing sheet, FIG. 7E
The patent's description of the figure: FIGS. 7A-F are tables of plasma PK parameters for Cohorts 8 to 10 in accordance with Example 4.
First reader's note: Each column is a dose group; according to the description these are plasma PK parameters on Day 14 (Cohorts 8 to 10).

[1] = tested on: healthy pre-menopausal women; experiment: Example 9: pharmacodynamics, menstruation, hot flash diary, bone resorption markers; format: in vivo, human
From the text: Methods: This was a 6-week phase 1, randomized, open-label, parallel-group, study conducted at 4 sites in the US. […] The first day of dosing occurred on Day 1 to 6 of the menstrual cycle. Hormonal preparations were prohibited for at least 3 months prior to screening. […] Vasomotor symptoms were captured using a daily diary (from screening until follow-up).

[2] = Example 5A: plasma concentrations, population PK; format: in vivo, human
Description: (§1) At Visit 3, blood was drawn twice, at 0.5 to 1.5 hours postdose and at 2 to 5 hours postdose, from each evaluable subject. At Visits 4, 5 and 6, blood was drawn once immediately prior to the dose for each day, and again at 0.5 to 1.5 hours postdose and at 2 to 5 hours postdose, from each evaluable subject. Blood was drawn only once for patients who took the study drug for the day before visiting the investigational site. At Visit 7, blood was drawn only once at the visit.

[3] = tested on: LH, FSH, estradiol (E2), progesterone (P); experiment: Example 5A: serum LH, FSH, E2, P; format: in vivo, human
Description: as §1

FIG. 12 = experiment: FIG. 12
From the text: Table printed on a drawing sheet, FIG. 12
The patent's description of the figure: FIG. 12 is a table of urine PK parameters for Cohorts 8 to 10 on Day 1 of the treatment period in accordance with Example 4.
First reader's note: Per the description these are urine PK parameters for Cohorts 8 to 10 on Day 1; each column is one dose group.

Compound: CONC(=O)Nc1ccc(-c2sc3c(c2CN(C)C)c(=O)n(-c2ccc(OC)nn2)c(=O)n3Cc2c(F)cccc2F)cc1 [Compound 1, N-(4-(1-(2,6-difluorobenzyl)-5-((dimethylamino)methyl)-3-(6-methoxy-3-pyridazinyl)-2,4-dioxo-1,2,3,4-tetrahydrothieno[2,3-d]pyrimidin-6-yl)phenyl)-N′-methoxyurea]
- Menstruation Recovery Period, mean (women with endometriosis; 10 mg): 21 days
- Any TEAEs (women with endometriosis; 10 mg (N = 103)): 89 N
- Headache (women with endometriosis; 10 mg (N = 103)): 5 N
- Hot flush (women with endometriosis; 10 mg (N = 103)): 12 N
- Hyperhidrosis (women with endometriosis; 10 mg (N = 103)): 4 N
- Menorrhagia (women with endometriosis; 10 mg (N = 103)): 11 N
- Menstruation Irregular (women with endometriosis; 10 mg (N = 103)): 21 N
- Metrorrhagia (women with endometriosis; 10 mg (N = 103)): 28 N
- Nasopharyngitis (women with endometriosis; 10 mg (N = 103)): 31 N
- Oligomenorrhea (women with endometriosis; 10 mg (N = 103)): 12 N
- Serious TEAEs (women with endometriosis; 10 mg (N = 103)): 0 N
- TEAEs Leading to Study Drug Discontinuation (women with endometriosis; 10 mg (N = 103)): 1 N
- TEAEs Related to Study Drug (women with endometriosis; 10 mg (N = 103)): 68 N
- TEAEs, Mild (women with endometriosis; 10 mg (N = 103)): 83 N
- TEAEs, Moderate (women with endometriosis; 10 mg (N = 103)): 6 N
- TEAEs, Severe (women with endometriosis; 10 mg (N = 103)): 0 N
- Change from Baseline in BMD, mean (women with endometriosis; 10 mg): −1.6%
- Menstruation Recovery Period, mean (women with endometriosis; 20 mg): 26 days
- Any TEAEs (women with endometriosis; 20 mg (N = 100)): 96 N
- Headache (women with endometriosis; 20 mg (N = 100)): 12 N
- Hot flush (women with endometriosis; 20 mg (N = 100)): 23 N
- Hyperhidrosis (women with endometriosis; 20 mg (N = 100)): 11 N
- Menorrhagia (women with endometriosis; 20 mg (N = 100)): 16 N
- Menstruation Irregular (women with endometriosis; 20 mg (N = 100)): 21 N
- Metrorrhagia (women with endometriosis; 20 mg (N = 100)): 36 N
- Nasopharyngitis (women with endometriosis; 20 mg (N = 100)): 31 N
- Oligomenorrhea (women with endometriosis; 20 mg (N = 100)): 12 N
- Serious TEAEs (women with endometriosis; 20 mg (N = 100)): 2 N
- TEAEs Leading to Study Drug Discontinuation (women with endometriosis; 20 mg (N = 100)): 7 N
- TEAEs Related to Study Drug (women with endometriosis; 20 mg (N = 100)): 88 N
- TEAEs, Mild (women with endometriosis; 20 mg (N = 100)): 82 N
- TEAEs, Moderate (women with endometriosis; 20 mg (N = 100)): 14 N
- TEAEs, Severe (women with endometriosis; 20 mg (N = 100)): 0 N
- Change from Baseline in BMD, mean (women with endometriosis; 20 mg): −2.6%
- Menstruation Recovery Period, mean (women with endometriosis; 40 mg): 37 days
- Any TEAEs (women with endometriosis; 40 mg (N = 103)): 98 N
- Headache (women with endometriosis; 40 mg (N = 103)): 11 N
- Hot flush (women with endometriosis; 40 mg (N = 103)): 55 N
- Hyperhidrosis (women with endometriosis; 40 mg (N = 103)): 10 N
- Menorrhagia (women with endometriosis; 40 mg (N = 103)): 15 N
- Menstruation Irregular (women with endometriosis; 40 mg (N = 103)): 7 N
- Metrorrhagia (women with endometriosis; 40 mg (N = 103)): 30 N
- Nasopharyngitis (women with endometriosis; 40 mg (N = 103)): 31 N
- Oligomenorrhea (women with endometriosis; 40 mg (N = 103)): 1 N
- Serious TEAEs (women with endometriosis; 40 mg (N = 103)): 0 N
- TEAEs Leading to Study Drug Discontinuation (women with endometriosis; 40 mg (N = 103)): 2 N
- TEAEs Related to Study Drug (women with endometriosis; 40 mg (N = 103)): 91 N
- TEAEs, Mild (women with endometriosis; 40 mg (N = 103)): 83 N
- TEAEs, Moderate (women with endometriosis; 40 mg (N = 103)): 15 N
- TEAEs, Severe (women with endometriosis; 40 mg (N = 103)): 0 N
- Change from Baseline in BMD, mean (women with endometriosis; 40 mg): −4.9%
- CL/F (L/hr) | Mean (FIG. 7E): 569.7 L/h and 436.3 L/h and 373.4 L/h
- Vz/F (L) | Mean (FIG. 7E): 5041.8 L and 3618.3 L and 3086.5 L
- No bleeding ([1]; last 28 days of treatment): 18 (72.0%) n (%)
- No light/normal/heavy bleeding (i.e., no bleeding except spotting) ([1]; last 28 days of treatment): 22 (88.0%) n (%)
- No normal/heavy bleeding ([1]; last 28 days of treatment): 23 (92.0%) n (%)
- subjects reporting no menstrual bleeding (except spotting) ([1]; last 28 days of treatment): 88.0%
- subjects reporting no normal or heavy bleeding ([1]; last 28 days of treatment): 92.0%
- average number of hot flash per subject (any severity) ([1]; week 6): 72.6
- number of hot flash in subjects reporting severe hot flash ([1]; week 6): 63.2
- proportion of subjects reporting hot flash ([1]; week 6): 60%
- increase in relative bioavailability, 40 mg vs 10 mg ([2]; human, plasma, oral, population PK, read-out: relative bioavailability higher in 40-mg compared with 10-mg): 30.9%
- absorption rate constant (ka) ([2]; population estimate): 0.416 h⁻¹
- apparent oral clearance (CL/F) ([2]; population estimate): 198 L/h
- median serum E2 ([3]; 10 mg, Week 2): 82.5 pg/mL
- median serum FSH ([3]; 10 mg, Week 2): 5.990 mIU/mL
- median serum LH ([3]; 10 mg, Week 2): 3.815 mIU/mL
- median serum P ([3]; 10 mg, Week 2): 0.315 ng/mL
- median serum E2 ([3]; 10 mg, Week 4): 58.0 pg/mL
- median serum FSH ([3]; 10 mg, Week 4): 5.225 mIU/mL
- median serum LH ([3]; 10 mg, Week 4): 2.565 mIU/mL
- median serum P ([3]; 10 mg, Week 4): 0.440 ng/mL
- median serum E2 ([3]; 10 mg, Week 8): 52.0 pg/mL
- median serum FSH ([3]; 10 mg, Week 8): 6.150 mIU/mL
- median serum LH ([3]; 10 mg, Week 8): 3.460 mIU/mL
- median serum P ([3]; 10 mg, Week 8): 0.360 ng/mL
- median change in serum E2 from baseline ([3]; 10 mg, Week 12): 0.0 pg/mL
- median change in serum FSH from baseline ([3]; 10 mg, Week 12): −1.060 mIU/mL
- median change in serum LH from baseline ([3]; 10 mg, Week 12): 0.420 mIU/mL
- median change in serum P from baseline ([3]; 10 mg, Week 12): 0.080 ng/mL
- median serum E2 ([3]; 10 mg, Week 12): 57.0 pg/mL
- median serum FSH ([3]; 10 mg, Week 12): 6.200 mIU/mL
- median serum LH ([3]; 10 mg, Week 12): 3.550 mIU/mL
- median serum P ([3]; 10 mg, Week 12): 0.410 ng/mL
- median serum E2 ([3]; 20 mg, Week 2): 25.0 pg/mL
- median serum FSH ([3]; 20 mg, Week 2): 5.705 mIU/mL
- median serum LH ([3]; 20 mg, Week 2): 2.520 mIU/mL
- median serum P ([3]; 20 mg, Week 2): 0.235 ng/mL
- median serum E2 ([3]; 20 mg, Week 4): 23.5 pg/mL
- median serum FSH ([3]; 20 mg, Week 4): 4.660 mIU/mL
- median serum LH ([3]; 20 mg, Week 4): 1.750 mIU/mL
- median serum P ([3]; 20 mg, Week 4): 0.270 ng/mL
- median serum E2 ([3]; 20 mg, Week 8): 16.0 pg/mL
- median serum FSH ([3]; 20 mg, Week 8): 4.840 mIU/mL
- median serum LH ([3]; 20 mg, Week 8): 2.260 mIU/mL
- median serum P ([3]; 20 mg, Week 8): 0.250 ng/mL
- median change in serum E2 from baseline ([3]; 20 mg, Week 12): -18.5 pg/mL
- median change in serum FSH from baseline ([3]; 20 mg, Week 12): −0.720 mIU/mL
- median change in serum LH from baseline ([3]; 20 mg, Week 12): −0.895 mIU/mL
- median change in serum P from baseline ([3]; 20 mg, Week 12): -0.090 ng/mL
- median serum E2 ([3]; 20 mg, Week 12): 13.0 pg/mL
- median serum FSH ([3]; 20 mg, Week 12): 5.710 mIU/mL
- median serum LH ([3]; 20 mg, Week 12): 2.685 mIU/mL
- median serum P ([3]; 20 mg, Week 12): 0.250 ng/mL
- median serum FSH ([3]; 40 mg, Week 2): 4.280 mIU/mL
- median serum LH ([3]; 40 mg, Week 2): 0.720 mIU/mL
- median serum P ([3]; 40 mg, Week 2): 0.230 ng/mL
- median serum E2 ([3]; 40 mg, Week 4): 0.0 pg/mL
- median serum FSH ([3]; 40 mg, Week 4): 3.710 mIU/mL
- median serum LH ([3]; 40 mg, Week 4): 0.550 mIU/mL
- median serum P ([3]; 40 mg, Week 4): 0.240 ng/mL
- median serum E2 ([3]; 40 mg, Week 8): 0.0 pg/mL
- median serum FSH ([3]; 40 mg, Week 8): 3.210 mIU/mL
- median serum LH ([3]; 40 mg, Week 8): 0.570 mIU/mL
- median serum P ([3]; 40 mg, Week 8): 0.220 ng/mL
- median change in serum E2 from baseline ([3]; 40 mg, Week 12): -35.0 pg/mL
- median change in serum FSH from baseline ([3]; 40 mg, Week 12): −3.180 mIU/mL
- median change in serum LH from baseline ([3]; 40 mg, Week 12): −2.760 mIU/mL
- median change in serum P from baseline ([3]; 40 mg, Week 12): -0.060 ng/mL
- median serum E2 ([3]; 40 mg, Week 12): 0.0 pg/mL
- median serum FSH ([3]; 40 mg, Week 12): 2.950 mIU/mL
- median serum LH ([3]; 40 mg, Week 12): 0.650 mIU/mL
- median serum P ([3]; 40 mg, Week 12): 0.250 ng/mL
- CLr (L/hr) | Mean (FIG. 12): 7.1595 L/h and 6.7303 L/h and 7.7148 L/h
- Fe (%) | Mean (FIG. 12): 0.639% and 0.938% and 1.209%

From US11957684B2, “Treatment of heavy menstrual bleeding associated with uterine fibroids” (Sumitomo Pharma Switzerland GmbH, priority 2016, dated 2024)
